PubChem BioAssay AID248 (DTP/NCI, 2004)
“And” between values parts separate entries of the source, which are not always exact repeats. Identical values can stand only once. Toxic doses and inconclusive results are not listed. Rule as the data show it: active = T/C of 150% or more; inactive = T/C below 125%.

System: L1210 leukemia ip in BDF1 mice, survival T/C
Test: NCI In Vivo Anticancer Drug Screen. Data for tumor model L1210 Leukemia (intraperitoneal) in B6D2F1 (BDF1) mice
Settings: endpoint: mean survival time, higher = longer survival
In short: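 In this screen, tumor-bearing mice given compound are compared to those given vehicle, and their survival values are reported as a treated-to-control quotient.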

[1] = dose: 150.0 mg/kg/injection, schedule: Q04DX003 (ip), vehicle: Klucel (hydroxypropylcellulose) (HPC)
[2] = dose: 100.0 mg/kg/injection, schedule: Q01DX009 (ip), vehicle: Klucel (hydroxypropylcellulose) (HPC)
[3] = dose: 200.0 mg/kg/injection, schedule: Q01DX009 (ip), vehicle: Klucel (hydroxypropylcellulose) (HPC)
[4] = dose: 100.0 mg/kg/injection, schedule: Q04DX003 (ip), vehicle: saline
[5] = dose: 200.0 mg/kg/injection, schedule: Q04DX003 (ip), vehicle: saline
[6] = dose: 400.0 mg/kg/injection, schedule: Q04DX003 (ip), vehicle: saline
[7] = dose: 100.0 mg/kg/injection, schedule: Q01DX001 (ip), vehicle: saline
[8] = dose: 100.0 mg/kg/injection, schedule: Q04DX003 (ip), vehicle: saline with Tween-80
[9] = dose: 100.0 mg/kg/injection, schedule: Q04DX003 (ip), vehicle: Klucel (hydroxypropylcellulose) (HPC)
[10] = dose: 75.0 mg/kg/injection, schedule: Q01DX001 (ip), vehicle: carboxymethylcellulose (CMC)
[11] = dose: 150.0 mg/kg/injection, schedule: Q01DX001 (ip), vehicle: carboxymethylcellulose (CMC)
[12] = dose: 400.0 mg/kg/injection, schedule: Q01DX009 (ip), vehicle: Klucel (hydroxypropylcellulose) (HPC)

Measured: T/C

O=C(CC(=O)c1cccc(NC(=O)CC(/C=C/C=C/CCCCCCCCCCCCCCCCC2CC(=O)OC2=O)C(=O)O)c1)Nc1ccccc1 (stereo not drawn)
inactive: dose: 75.0 mg/kg/injection, schedule: Q04DX003 (ip), vehicle: Klucel (hydroxypropylcellulose) (HPC) 94 % of control | dose: 100.0 mg/kg/injection, schedule: Q01DX001 (ip), vehicle: Klucel (hydroxypropylcellulose) (HPC) 90 % of control | [1] 95 % of control | dose: 200.0 mg/kg/injection, schedule: Q01DX001 (ip), vehicle: Klucel (hydroxypropylcellulose) (HPC) 90 % of control | dose: 300.0 mg/kg/injection, schedule: Q04DX003 (ip), vehicle: Klucel (hydroxypropylcellulose) (HPC) 103 % of control | dose: 400.0 mg/kg/injection, schedule: Q01DX001 (ip), vehicle: Klucel (hydroxypropylcellulose) (HPC) 87 % of control

Cc1[nH]nc(-c2cccnc2)c1N=NN1CCC(C(N)=O)CC1
inactive: dose: 75.0 mg/kg/injection, schedule: Q01DX001 (ip), vehicle: other 103 % of control

Cc1ccc(Cl)cc1NC(=O)C(Br)C(Br)C(=O)O (stereo not drawn)
inactive: [2] 91 % of control | [3] 101 % of control

C/C(=C/c1c(Br)cc(Br)c(N)c1Br)C(=O)O
inactive: [4] 100 % of control | [5] 102 % of control | [6] 102 % of control

CCNC(=O)c1cc2cccc(OC)c2oc1=N
inactive: [4] 105 % of control | [5] 97 % of control | [6] 90 % of control

CCCc1nc2c(c(=O)n(C)c(=O)n2C)n1C
inactive: dose: 45.0 mg/kg/injection, schedule: Q01DX001 (ip), vehicle: saline 97 % of control and 98 % of control | dose: 67.0 mg/kg/injection, schedule: Q01DX001 (ip), vehicle: saline 97 % of control and 103 % of control | [7] 94 % of control and 101 % of control | dose: 150.0 mg/kg/injection, schedule: Q01DX001 (ip), vehicle: saline 98 % of control and 101 % of control

CCC12C=CCN3CCC4(C(=C(C(=O)OC)C1)Nc1cc(OC)ccc14)C32 (stereo not drawn)
inactive: dose: 100.0 mg/kg/injection, schedule: Q04DX002 (ip), vehicle: saline 110 % of control | dose: 200.0 mg/kg/injection, schedule: Q04DX002 (ip), vehicle: saline 121 % of control

CC1CCC(N=S=O)CC1 (stereo not drawn) (tested in a mixture with another compound)
inactive: dose: 18.75 mg/kg/injection, schedule: Q01DX009 (ip), vehicle: saline with Tween-80 102 % of control | dose: 25.6 mg/kg/injection, schedule: Q04DX002 (ip), vehicle: saline with Tween-80 102 % of control | dose: 37.5 mg/kg/injection, schedule: Q01DX009 (ip), vehicle: saline with Tween-80 102 % of control | dose: 64.0 mg/kg/injection, schedule: Q04DX002 (ip), vehicle: saline with Tween-80 109 % of control | dose: 75.0 mg/kg/injection, schedule: Q01DX009 (ip), vehicle: saline with Tween-80 111 % of control | [8] 101 % of control | dose: 160.0 mg/kg/injection, schedule: Q04DX002 (ip), vehicle: saline with Tween-80 95 % of control

CC[N+](C)(C)CCC#N
inactive: dose: 10.0 mg/kg/injection, schedule: Q01DX001 (ip), vehicle: saline 95 % of control | dose: 20.0 mg/kg/injection, schedule: Q01DX001 (ip), vehicle: saline 101 % of control | dose: 40.0 mg/kg/injection, schedule: Q01DX001 (ip), vehicle: saline 101 % of control

CCOC(=O)C1=C(C)NC(=O)NN1C(=O)OCC
inactive: dose: 50.0 mg/kg/injection, schedule: Q01DX009 (ip), vehicle: saline 113 % of control

O=C1c2ccccc2C(=O)C1c1ccc2ccccc2n1
inactive: [8] 95 % of control | dose: 200.0 mg/kg/injection, schedule: Q04DX003 (ip), vehicle: saline with Tween-80 91 % of control | dose: 400.0 mg/kg/injection, schedule: Q04DX003 (ip), vehicle: saline with Tween-80 93 % of control

COCCNC1=C(F)C(=O)C(NCCOC)=C(F)C1=O
inactive: dose: 3.12 mg/kg/injection, schedule: Q04DX003 (ip), vehicle: Klucel (hydroxypropylcellulose) (HPC) 90 % of control | dose: 6.25 mg/kg/injection, schedule: Q04DX003 (ip), vehicle: Klucel (hydroxypropylcellulose) (HPC) 111 % of control | dose: 12.5 mg/kg/injection, schedule: Q04DX003 (ip), vehicle: Klucel (hydroxypropylcellulose) (HPC) 98 % of control | dose: 25.0 mg/kg/injection, schedule: Q04DX003 (ip), vehicle: Klucel (hydroxypropylcellulose) (HPC) 95 % of control | dose: 50.0 mg/kg/injection, schedule: Q04DX003 (ip), vehicle: Klucel (hydroxypropylcellulose) (HPC) 95 % of control | [9] 97 % of control | [1] 94 % of control | dose: 225.0 mg/kg/injection, schedule: Q04DX003 (ip), vehicle: Klucel (hydroxypropylcellulose) (HPC) 94 % of control | dose: 335.0 mg/kg/injection, schedule: Q04DX003 (ip), vehicle: Klucel (hydroxypropylcellulose) (HPC) 95 % of control

C=C1CC2C=CC1C2 (stereo not drawn) (tested in a mixture with another compound)
inactive: dose: 100.0 mg/kg/injection, schedule: Q01DX001 (ip), vehicle: saline with Tween-80 98 % of control | dose: 200.0 mg/kg/injection, schedule: Q01DX001 (ip), vehicle: saline with Tween-80 93 % of control | dose: 400.0 mg/kg/injection, schedule: Q01DX001 (ip), vehicle: saline with Tween-80 94 % of control

CCc1ccc(/C(C#N)=C/c2ccc(N(C)C)cc2)cc1
inactive: dose: 25.0 mg/kg/injection, schedule: Q01DX009 (ip), vehicle: Klucel (hydroxypropylcellulose) (HPC) 100 % of control | dose: 50.0 mg/kg/injection, schedule: Q01DX009 (ip), vehicle: Klucel (hydroxypropylcellulose) (HPC) 91 % of control | [2] 96 % of control and 90 % of control

CCC(=N)C1CCCCC1
inactive: [10] 102 % of control | [11] 93 % of control

O=C(Cc1ccccc1)Nc1cccc2ccccc12
inactive: [2] 101 % of control | [3] 95 % of control | [12] 91 % of control

O=C(Cl)C(Cl)(Cl)Cl
inactive: dose: 100.0 mg/kg/injection, schedule: Q04DX002 (sc), vehicle: olive oil, sesame oil, peanut oil 103 % of control | dose: 200.0 mg/kg/injection, schedule: Q04DX002 (sc), vehicle: olive oil, sesame oil, peanut oil 116 % of control | dose: 400.0 mg/kg/injection, schedule: Q04DX002 (sc), vehicle: olive oil, sesame oil, peanut oil 100 % of control

O=C(C(Br)C(Br)c1ccccc1)C(Br)C(Br)c1ccccc1 (stereo not drawn)
inactive: dose: 100.0 mg/kg/injection, schedule: Q04DX003 (ip), vehicle: saline sonified 101 % of control | dose: 200.0 mg/kg/injection, schedule: Q04DX003 (ip), vehicle: saline sonified 105 % of control | dose: 400.0 mg/kg/injection, schedule: Q04DX003 (ip), vehicle: saline sonified 97 % of control

CC/C(=C/c1ccc2c(c1)OCO2)[N+](=O)[O-]
inactive: dose: 25.0 mg/kg/injection, schedule: Q01DX001 (ip), vehicle: saline 100 % of control | dose: 50.0 mg/kg/injection, schedule: Q01DX001 (ip), vehicle: saline 100 % of control | [7] 100 % of control

CCOC1OCN(C(C)C)CC1(C)C (stereo not drawn)
inactive: dose: 75.0 mg/kg/injection, schedule: Q01DX009 (ip), vehicle: saline 110 % of control | dose: 150.0 mg/kg/injection, schedule: Q01DX009 (ip), vehicle: saline 119 % of control

c1ccc(CN2CCNCC2)cc1
inactive: dose: 6.25 mg/kg/injection, schedule: Q01DX009 (ip), vehicle: saline 93 % of control | dose: 12.5 mg/kg/injection, schedule: Q01DX009 (ip), vehicle: saline 93 % of control | dose: 25.0 mg/kg/injection, schedule: Q01DX009 (ip), vehicle: saline 94 % of control

NNc1n[nH]c(=S)n1N
inactive: dose: 25.0 mg/kg/injection, schedule: Q04DX003 (ip), vehicle: saline 90 % of control | [4] 97 % of control

COc1ccccc1C(=O)N/N=C(\C)c1cccc2ccccc12
inactive: [2] 108 % of control | [3] 110 % of control | [12] 96 % of control

O=C(OC1CCCCCCC1OC(=O)c1ccc([N+](=O)[O-])cc1)c1ccc([N+](=O)[O-])cc1 (stereo not drawn)
inactive: [10] 93 % of control | [11] 91 % of control | dose: 300.0 mg/kg/injection, schedule: Q01DX001 (ip), vehicle: carboxymethylcellulose (CMC) 91 % of control

CN(CCCl)C(=O)Nc1ccc(Cl)cc1
inactive: [9] 94 % of control | dose: 200.0 mg/kg/injection, schedule: Q04DX003 (ip), vehicle: Klucel (hydroxypropylcellulose) (HPC) 94 % of control | dose: 400.0 mg/kg/injection, schedule: Q04DX003 (ip), vehicle: Klucel (hydroxypropylcellulose) (HPC) 90 % of control

CCN(CC)CCNC(=O)c1c2c(nc3ccccc13)CCCC2
inactive: [7] 103 % of control | dose: 200.0 mg/kg/injection, schedule: Q01DX001 (ip), vehicle: saline 102 % of control | dose: 400.0 mg/kg/injection, schedule: Q01DX001 (ip), vehicle: saline 98 % of control
